We go through 22 compounds from patent US5103007A, “Lipids” (Takeda Chemical Industries, Ltd., priority 1988, dated 1992).

In brackets after ≈: the same amount, converted by molar mass.

In assay [1] the test system is human colon adenocarcinoma (colon 205 cells). Briefly: Inhibition of multiplication of human colon adenocarcinoma (colon 205 cells), MTT assay. The assay is classed as cell-based. To be noted: 72 hours. The protocol:
(§1) The effect (IC50) of the compounds obtained by Examples in inhibiting multiplication of human nasopharynx cancer (KB cells) and human colon adenocarcinoma (colon 205 cells) Each well of a 96-well microtiter plate was inoculated with 0.1 ml of human nasopharynx cancer (KB cells) (1×10^4 /ml) or human colon adenocarcinoma (colon 205 cells) (2×10^4 /ml), which was then subjected to cultivation by allowing to stand at 37° C. for 24 hours in 5% CO2. To the culture was added a 10% MEM solution (manufactured by Nissui Seiyaku or RPMI-1640), and cultivation was continued at 37° C. for 72 hours in 5% CO2. Then, the culture solution was removed with a micro-pipette. […] Incubation was conducted at 37° C for 4 hours, to which was then added 0.1 ml of a 10% SDS (Wako Pure Chemical Industries, Ltd.), and the incubation was continued at 37° C. for 24 hours.
Background: Formazan colour is commonly taken as a measure of viable cells.

Assay [2] deals with human nasopharynx cancer (KB cells). Briefly: Inhibition of multiplication of human nasopharynx cancer (KB cells), MTT assay. The assay is classed as cell-based. To be noted: 72 hours. The protocol: as §1

A word on the IC50: it is the concentration needed to halve the response being measured. A higher IC50 goes with weaker potency in that assay. Regarding `CCCCCCCCCCCCCCCCCCOCC(C[S+]([O-])CCOCC[n+]1ccc2ccccc2c1)Oc1ncccn1.[Cl-]` (centres unmarked) [Ex. 4, N-[2-[2-[3-octadecyloxy-2-(pyrimidin-2-yloxy)propylsulfinyl]ethoxy]ethyl]isoquinolinium chloride], the results for the IC50 in assay [1] and in assay [2] were 0.63 µg/mL and 0.32 µg/mL, respectively.
For the compound `CCCCCCCCCCCCCCCCCCOCC(C[S+]([O-])CCOCC[n+]1cccc2ccccc21)Oc1ncccn1` (centres unmarked) [Ex. 5, N-[2-[2-[3-octadecyloxy-2-(pyrimidin-2-yloxy)propylsulfinyl]ethoxy]quinolinium chloride], the IC50 in assay [1] was determined as 0.32 µg/mL; in assay [2] it was 0.16 µg/mL.
Taken in the same sequence, the figures for `CCCCCCCCCCCCCCCCCCOCC(C[S+]([O-])CCOCC[n+]1ccc(N(C)C)cc1)Oc1ncccn1.[Cl-]` (centres unmarked) [Ex. 7, 4-dimethylamino-1-[2-[2-[3-octadecyloxy-2-(pyrimidin-2-yloxy)propylsulfinyl]ethoxy]ethyl]pyridinium chloride] were 0.63 µg/mL and 0.16 µg/mL.
Taken in the same sequence, the figures for `CCCCCCCCCCCCCCCCCCOCC(CSCCCOCCC[n+]1ccn(CCCCCC(=O)[O-])c1)Oc1ncccn1` (centres unmarked) [Ex. 13, 6-[3-[3-[3-[3-octadecyloxy-2-(pyrimidin-2-yloxy)propylthio]propoxy]propyl]imidazolio-1-yl]hexanoate] were 1.25 µg/mL (≈ 1.74 µM) and 0.63 µg/mL (≈ 0.876 µM).
Taken in the same sequence, the figures for `CCCCCCCCCCCCCCCCCCOCC(CS(=O)(=O)CCCOCCC[n+]1ccsc1)Oc1ncccn1` (centres unmarked) [Ex. 15, 3-[3-[3-octadecyloxy-2-(pyrimidin-2-yloxy)propylsulfonyl]propoxy]propylthiazolium chloride] were 1.25 µg/mL and 1.25 µg/mL.
In the case of `CCCCCCCCCCCCCCCCCCOCC(CS(=O)(=O)CCCOCCC[n+]1ccccc1)Oc1ncccn1.[Cl-]` (centres unmarked) [Ex. 16, N-[3-[3-[3-octadecyloxy-2-(pyrimidin-2-yloxy)propylsulfonyl]propoxy]propyl]pyridinium chloride], the 50% inhibitory concentration (IC50) in assay [1] was determined as 0.63 µg/mL; in assay [2], 0.16 µg/mL.
As for `CCCCCCCCCCCCCCCCCCOCC(CS(=O)(=O)CCCOCCC[N+](C)(C)C)Oc1ncccn1.[Cl-]` (centres unmarked) [Ex. 17, N-[3-[3-[3-octadecyloxy-2-(pyrimidin-2-yloxy)propylsulfonyl]propoxy]propyl]-N,N,N-trimethylammonium chloride], the IC50 in assay [1] turned out to be 1.25 µg/mL; in assay [2] it was 0.32 µg/mL.
Taken in the same sequence, the figures for `CCCCCCCCCCCCCCCCCCOCC(C[S+]([O-])CCCOCCC[n+]1ccsc1)Oc1ncccn1` (centres unmarked) [Ex. 18, 3-[3-[3-octadecyloxy-2-(pyrimidin-2-yloxy)propylsulfinyl]propoxy]propylthiazolium chloride] were 1.25 µg/mL and 1.25 µg/mL.
As for `CCCCCCCCCCCCCCCCCCOCC(CS(=O)(=O)CCOCC[n+]1ccccc1)Oc1ncccn1.[Cl-]` (centres unmarked) [Ex. 20, N-[2-[2-[3-octadecyloxy-2-(pyrimidin-2-yloxy)propylsulfonyl]ethoxy]ethyl]pyridinium chloride], the IC50 was 0.63 µg/mL in assay [1] and < 0.08 µg/mL in assay [2].
As to `CCCCCCCCCCCCCCCCCCOCC(CSCCOCC[N+]1(C)CCCC1)Oc1ncccn1.[Cl-]` (centres unmarked) [Ex. 22, N-methyl-N-[2-[2-[3-octadecyloxy-2-(pyrimidin-2-yloxy)propylthio]ethoxy]ethyl]pyrrolidinium chloride], the IC50 in assay [1] is 1.25 µg/mL; in assay [2], 0.32 µg/mL.
On to `CCCCCCCCCCCCCCCCCCOCC(CSCCOCC[N+](C)(C)C)Oc1ncccn1.[Cl-]` (centres unmarked) [Ex. 23, N-[2-[2-[3-octadecyloxy-2-(pyrimidin-2-yloxy)propylthio]ethoxy]ethyl]-N,N,N-trimethylammonium chloride], for which the IC50 in assay [1] and in assay [2] was 0.63 µg/mL each time.
Regarding `CCCCCCCCCCCCCCCCCCOCC(CSCCOCC[n+]1ccn(CCCCCC(=O)OCC)c1)Oc1ncccn1` (centres unmarked) [Ex. 25, 1-[(5-ethoxycarbonyl)pentyl]-3-[2-[2-[3-octadecyloxy-2-(pyrimidin-2-yloxy)propylthio]ethoxy]ethyl]imidazolium chloride], the figures for the 50% inhibitory concentration (IC50) in assay [1] and in assay [2] were 2.5 µg/mL and 0.32 µg/mL, respectively.
For `CCCCCCCCCCCCCCCCCCOCC(CSCCOCC[n+]1ccn(CCC(C)(C)C(=O)OCC)c1)Oc1ncccn1` (centres unmarked) [Ex. 26, 1-[(3-ethoxycarbonyl-3-methyl)butyl]-3-[2-[2-[3-octadecyloxy-2-(pyrimidin-2-yloxy)propylthio]-ethoxy]ethyl]imidazolium choride], in that order: 0.63 µg/mL and 1.25 µg/mL.
`O=C([O-])CCCn1cc[n+](CCOCCSCC(COCCCCCCCCCCCCC2CCCCC2)Oc2ncccn2)c1` (centres unmarked) [Ex. 28]: the concentration for half-maximal inhibition (IC50) in assay [1] was 5 µg/mL (≈ 7.56 µM); in assay [2] it was 1.25 µg/mL (≈ 1.89 µM).
Taken in the same sequence, the figures for `[Cl-].[O-][S+](CCOCC[n+]1ccccc1)CC(COCCCCCCCCCCCCC1CCCCC1)Oc1ncccn1` (centres unmarked) [Ex. 29, 1-[2-[2-[3-(12-cyclohexyldodecyloxy)-2-(pyrimidin-2yloxy)propylsulfinyl]ethoxy]ethyl]pyridinium chloride] were 0.63 µg/mL and < 0.08 µg/mL.
As for `CCCCCCCCCCCCCCCCCCOCC(C[S+]([O-])CCOCC[N+]1(C)CCCC1)Oc1ncccn1.[Cl-]` (centres unmarked) [Ex. 30, N-methyl-N-[2-[2-[3-octadecyloxy-2-(pyrimidin-2-yloxy)propylsulfinyl]ethoxy]ethyl]pyrrolidinium chloride], the results for the half-inhibitory concentration (IC50) in assay [1] and in assay [2] were 0.32 µg/mL and 0.16 µg/mL, respectively.
For `CCCCCCCCCCCCCCCCCCOCC(CSCCOCC[n+]1ccccc1)Oc1ccncn1.[Cl-]` (centres unmarked) [Ex. 32, N-[2-[2-[3-octadecyloxy-2-(pyrimidin-4-yloxy)propylthio]ethoxy]ethyl]pyridinium chloride], in that order: 1.25 µg/mL and 0.63 µg/mL.
For `CCCCCCCCCCCCCCCCCCOCC(CSCCOCC[n+]1ccn(CCCCCC(=O)[O-])c1)Oc1ccncn1` (centres unmarked) [Ex. 33, 6-[3-[2-[2-[3-octadecyloxy-2-(pyrimidin-4-yloxy)propylthio]ethoxy]ethyl]imidazolio-1-yl]hexanoate], in that order: 2.5 µg/mL (≈ 3.62 µM) and 0.63 µg/mL (≈ 0.912 µM).
As to `CCCCCCCCCCCCCCCCCCOCC(C[S+]([O-])CCOCC[n+]1ccccc1)Oc1ccncn1.[Cl-]` (centres unmarked) [Ex. 34, N-[2-[2-[3-octadecyloxy-2-(pyrimidin-4-yloxy)propylsulfinyl]ethoxy]ethyl]pyridinium chloride], the half-inhibitory concentration (IC50) amounted to 0.63 µg/mL in assay [1] and 0.32 µg/mL in assay [2].
For `CCCCCCCCCCCCCCCCCCOCC(C[S+]([O-])CCOCC[N+](C)(C)C)Oc1ccncn1.[Cl-]` (centres unmarked) [Ex. 35, N-[2-[2-[3-octadecyloxy-2-(pyrimidin-4-yloxy)propylsulfinyl]ethoxy]ethyl]-N,N,N-trimethylammonium chloride], in that order: 0.63 µg/mL and 0.16 µg/mL.
Taken in the same sequence, the figures for `CCCCCCCCCCCCCCCCCCOCC(CSCCOCC[n+]1cccc(CCCCC(=O)[O-])c1)Oc1ncccn1` (centres unmarked) [Ex. 37, 5-[1-[2-[2-[3-octadecyloxy-2-(pyrimidin-2-yloxy)propylthio]ethoxy]ethyl]pyridinio-3-yl]pentanoate] were 5 µg/mL (≈ 7.27 µM) and 0.32 µg/mL (≈ 0.465 µM).
Consider `CC(C)CCCC(C)CCCC(C)CCCC(C)CCOCC(CSCCOCC[n+]1ccn(CCCCCC(=O)[O-])c1)Oc1ncccn1` (centres unmarked) [Ex. 38, 6-[3-[2-[2-[2-(pyrimidin-2-yloxy)-3-(3,7, 11,15-tetramethylhexadecyloxy)propylthio]ethoxy]ethyl]-imidazolio-1-yl)hexanoate], for which the figures for the IC50 in assay [1] and in assay [2] were 2.5 µg/mL (≈ 3.48 µM) and 0.63 µg/mL (≈ 0.876 µM), respectively.
